Measured values published in patent US20260137697A1, “THIAZOLO[5,4-D]PYRIMIDINE COMPOUNDS, COMPOSITIONS COMPRISING THEM AND USES THEREOF” (University de Montreal, priority 2022, published 2026).
Read-outs that look alike come from different tables or passages of the source.

Tests used:
Assay type in all cases: cell-based, human
pERK, SW620 cells = assay: Phospho-ERK inhibition, AlphaLISA p-ERK 1/2, SW620; conditions: Table D-2; for IC50: SW620 (KRAS-G12V); for pERK value in parentheses, % inhibition (Ymin): SW620, lowest point of IC50 curve
Description: (§1) All cancer cell lines (A375, A101D, A2058, RKO, HT29 SK-MEL 30, IPC298, HepG2, HCT-116, Lovo, SW620, SW480, NCI-H358, NCI-H2122, Calu-6, NCIH2087, NCIH1755, NCIH1666 and Mewo) were obtained from ATCC and cultured in RPM1-1640 medium (Gibco) supplemented with 5% heat inactivated fetal bovine serum (FBS, Wisent) at 37° C. under 5% CO2. Cells were maintained in T175 flasks (Greiner). They were passaged by removing the culture medium, washing once in 10 mL of room temperature Phosphate Buffered Saline (PBS; Wisent) and incubating at 37° C. with 2 mL of 0.05% Trypsin (Thermo-Fisher). Trypsin was then inactivated by adding complete growth medium and the cells were then replated in a T175 culture dish at the appropriate dilution. All cell lines were routinely tested for mycoplasma contamination. Tissue type and mutational status of each cell line can be found in Table B.
(§2) (c) Measurement of Phospho-ERK Inhibition in Cultivated Human Cancer Cell Lines by the AlphaLISA® SureFire® Ultra™ p-ERK 1/2 (Thr2O2/Tyr204)
(§3) AlphaLISA® SureFire® Ultra™ p-ERK 1/2 (Thr202/Tyr204) analysis was conducted on cells plated in 100 μL of complete RPMI-1640 growth medium in 96-well flat-bottomed transparent dishes (Costar) at a density indicated in Table C. Cells were maintained overnight at 37° C. under 5% CO2 before treatment with compounds' dilution series for one hour. The cell density in cells/cm^2 corresponds to cell number divided by the area of one well of a 96-well plate (0.143 cm^2).
(§4) In a dilution series 100 μL/well of test substance dilution prepared in complete RPMI-1640 growth media was added to the cells. The dilution series is selected so that ten concentrations cover a range from 10 μM to 0.33 nM. If necessary, the initial concentration of 10 μM is increased to 100 μM or lowered to 1 μM (as in the case of A375 and H1666 cells, which are generally more sensitive to the compounds) and further dilution is carried out accordingly. The final concentration of DMSO in the assay is set at 0.5%.
(§5) After treatment, media was removed, and cells were lysed in 50 μL of 1× AlphaScreen Ultra Lysis Buffer (Perkin Elmer). The AlphaLISA® SureFire® Ultra™ p-ERK 1/2 (Thr202/Tyr204) (PerkinElmer) reactions were performed with 5 μL of cell lysate according to the manufacturer's specifications in 384-well proxyplates (Perkin Elmer) followed by overnight incubation of the reactions at room temperature in a humidified chamber. After completion of the reactions, the signals were recorded on an EnVision plate reader (Perkin Elmer) using built in AlphaLISA® settings.
(§6) The effect of each compound dilution on the pERK signal was expressed in % inhibition and calculated as follows. An internal 100% inhibition control (1 μM trametinib, cat. No. HY-10999; MedChem Express; CAS No. 871700-17-3) was included in each plate and used as a measure of pERK background. First, the value obtained for trametinib was subtracted from each data point. The average of DMSO (vehicle) controls (set as 0% inhibition) was established and used to calculate % inhibition:
(§7) The ability of each compound to inhibit pERK signal was expressed as an IC50 value obtained by plotting the inhibition values for each data point of a dilution series and fitting the obtained curves using a log(agonist) versus response—variable slope (four parameters) function using GraphPadPrism (V7.0) or Dotmatics Screening Ultra platform.
(§8) When present, paradoxical pERK induction is inferred from the negative % inhibition values observed in the pERK IC50 curves of a compound.

pERK, Calu6 cells = assay: Phospho-ERK inhibition, AlphaLISA p-ERK 1/2, Calu-6; conditions: Table D-2; for IC50: Calu6 (KRAS Q61K); for pERK value in parentheses, % inhibition (Ymin): Calu6, lowest point of IC50 curve
Description: as §1, §2, §3, §4, §5, §6, §7, §8

pERK, Mewo cells = assay: Phospho-ERK inhibition, AlphaLISA p-ERK 1/2, Mewo; conditions: Table D-2; for IC50: Mewo (NF1 LOF); for pERK value in parentheses, % inhibition (Ymin): Mewo, lowest point of IC50 curve
Description: as §1, §2, §3, §4, §5, §6, §7, §8

RKO cells = assay: Proliferation inhibition, CellTiter-Glo, RKO; conditions: Table D-1, RKO (BRAF V600E), 3 days, read-out: Prolif. (proliferation EC50)
Description: as §1
(§9) CellTiter-Glo® viability analysis was conducted on cells plated in 100 μL of complete RPMI-1640 growth medium in 96-well flat-bottomed white opaque plates (Greiner or Croning) at a density indicated in Table E (for each CCL, number of cells plated per well of a 96-well plate to perform the CellTiter-Glo® cell viability assay). The cell density in cells/cm^2 would correspond to cell number divided by the area of one well of a 96-well plate (0.32 cm^2). […]
(§10) After 3 days of incubation, the growth media were removed by aspiration and 60 μL of diluted CellTiter-Glo® reagent (10 μL CellTiter-Glo® reagent+50 μL of PBS) was added to each well. […] Luminescence signals were then acquired on a Synergy Neo2 plate reader (Biotek).
(§11) The effect of each compound dilution on the proliferation of cancer cell lines was expressed in % inhibition and calculated as follows. […]
as §7, with “proliferation” for “pERK signal”, “a EC50” for “an IC50”, “effect” for “inhibition”

IPC298 cells = assay: Proliferation inhibition, CellTiter-Glo, IPC298; conditions: Table D-1, IPC298 (NRAS-Q61L), 3 days, read-out: Prolif. (proliferation EC50)
Description: as §1, §9, §10, §11
as §7, with “proliferation” for “pERK signal”, “a EC50” for “an IC50”, “effect” for “inhibition”

SW480 cells = assay: Proliferation inhibition, CellTiter-Glo, SW480; conditions: Table D-2, SW480 (KRAS G12D), 3 days, read-out: Prolif. (proliferation EC50)
Description: as §1, §9, §10, §11
as §7, with “proliferation” for “pERK signal”, “a EC50” for “an IC50”, “effect” for “inhibition”

Cc1ccc2c(Nc3cccc(Cl)c3F)nccc2c1NC(=O)c1csc2c(N)ncnc12 [Belvarafenib, reference compound]
IC50 (pERK, SW620 cells; Homo sapiens, SW-620): 30 to 300 nM | pERK value in parentheses, % inhibition (Ymin) (pERK, SW620 cells): (−151) % | IC50 (pERK, Calu6 cells; Homo sapiens, Calu-6): 30 to 300 nM | pERK value in parentheses, % inhibition (Ymin) (pERK, Calu6 cells): (−39) % | IC50 (pERK, Mewo cells; Homo sapiens): 30 to 300 nM | pERK value in parentheses, % inhibition (Ymin) (pERK, Mewo cells): (−116) % | EC50 (RKO cells; Homo sapiens, 72 h): < 300 nM | EC50 (IPC298 cells; Homo sapiens, IPC-298, 72 h): < 300 nM | EC50 (SW480 cells; Homo sapiens, 72 h): 300 to 3000 nM

N#CC1(c2cccc3c2ncn3-c2nc3c(Nc4c(F)ccc(NS(=O)(=O)c5cccc(Cl)c5Cl)c4F)ncnc3s2)CC1 [Example 122]
IC50 (pERK, SW620 cells): 30 to 300 nM | pERK value in parentheses, % inhibition (Ymin) (pERK, SW620 cells): (−6) % | IC50 (pERK, Calu6 cells): 30 to 300 nM | pERK value in parentheses, % inhibition (Ymin) (pERK, Calu6 cells): (−8) % | IC50 (pERK, Mewo cells): 30 to 300 nM | pERK value in parentheses, % inhibition (Ymin) (pERK, Mewo cells): (2) % | EC50 (RKO cells): < 300 nM | EC50 (IPC298 cells): < 300 nM | EC50 (SW480 cells): < 300 nM

Cc1c(F)cccc1S(=O)(=O)Nc1ccc(F)c(Nc2ncnc3sc(-n4cc(C(=O)N5C6CCC5CN(C)C6)c5ccccc54)nc23)c1F [Example 44]
IC50 (pERK, SW620 cells): 30 to 300 nM | pERK value in parentheses, % inhibition (Ymin) (pERK, SW620 cells): (3) % | IC50 (pERK, Calu6 cells): < 30 nM | pERK value in parentheses, % inhibition (Ymin) (pERK, Calu6 cells): (−12) % | IC50 (pERK, Mewo cells): < 30 nM | pERK value in parentheses, % inhibition (Ymin) (pERK, Mewo cells): (3) % | EC50 (RKO cells): < 300 nM | EC50 (IPC298 cells): < 300 nM | EC50 (SW480 cells): < 300 nM
